{
  "source": "PubChem BioAssay AID1390",
  "about": "(Sanford-Burnham Center for Chemical Genomics, 2008)",
  "note": "Activity calls are given as the source filed them.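 The calls were made as follows: active = no band for the ATF-6 stress protein on the immunoblot of thapsigargin-stressed cell lysates; inactive = ATF-6 band still present, cleavage not blocked.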",
  "data": [
    {"tested_on": "CSM14.1 cells, thapsigargin, ATF-6 Western blot", "assay": "blockers of ER stress ATF-6 induction – cell-based, thapsigargin, Western blot, mechanism study for ER stress cell death inhibitors, late-stage follow-up (AID 1390)", "values": [
      {"smiles": "COc1ccc(C2CC(=O)C3=C(C2)Nc2ccccc2NC3c2cccc(Br)c2)cc1OC", "note": "(stereo unspecified)", "outcome": "inactive"},
      {"smiles": "COc1ccc(C2CC(=O)C3=C(C2)Nc2ccccc2NC3c2cc(C)ccc2C)cc1", "note": "(stereo unspecified)", "outcome": "inactive"},
      {"smiles": "O=C1CC(c2ccccc2)CC2=C1C(c1c(F)cccc1Cl)Nc1ccccc1N2", "note": "(stereo unspecified)", "outcome": "inactive"},
      {"smiles": "CCOc1cccc(C2Nc3ccccc3NC3=C2C(=O)CC(c2ccc(OC)cc2)C3)c1", "note": "(stereo unspecified)", "outcome": "inactive"},
      {"smiles": "CCCOc1ccc(C2Nc3ccccc3NC3=C2C(=O)CC(c2ccc(OC)c(OC)c2)C3)cc1", "note": "(stereo unspecified)", "outcome": "inactive"},
      {"smiles": "CCOc1cc(C2Nc3ccccc3NC3=C2C(=O)CC(c2ccc(OC)cc2)C3)cc(Cl)c1O", "note": "(stereo unspecified)", "outcome": "inactive"},
      {"smiles": "CSc1ccc(C2Nc3ccccc3NC3=C2C(=O)CC(c2ccccc2)C3)cc1", "note": "(stereo unspecified)", "outcome": "inactive"},
      {"smiles": "CC1(C)CC(=O)C2=C(C1)Nc1ccccc1NC2c1ccc(-c2ccccc2)cc1", "note": "(stereo unspecified)", "outcome": "inactive"},
      {"smiles": "COc1ccc(C2CC(=O)C3=C(C2)Nc2ccccc2NC3c2ccccc2C(F)(F)F)cc1OC", "note": "(stereo unspecified)", "outcome": "inactive"},
      {"smiles": "COc1ccc(C2CC(=O)C3=C(C2)Nc2ccccc2NC3c2cccc(Oc3ccccc3)c2)cc1OC", "note": "(stereo unspecified)", "outcome": "inactive"},
      {"smiles": "COc1ccc(C2CC(=O)C3=C(C2)Nc2ccccc2NC3c2cccc(C(F)(F)F)c2)cc1OC", "note": "(stereo unspecified)", "outcome": "inactive"}
    ]}
  ]
}
